Assays:
[1] = biological target: T1, purified recombinant p38 (6×His-p38 expressed in E.coli) (Homo sapiens, UniProt Q16539); experiment: p38 Inhibition In-Vitro Enzyme Assay; assay type: biochemical; details: myelin basic protein substrate, 33P-ATP; for inhibition at 10 µM: read-out: % p38 inhib @ 10 μM
T1 construct: 6xHis; made in house; host or cells: E. coli
Method: A. p38 Inhibition In-Vitro Enzyme Assay
A solution (38 μL) of purified recombinant p38 (6×His-p38 expressed in E.coli), myelin basic protein substrate (determined empirically), and a buffer of pH 7.5 (Hepes:25 mM, MgCl2:10 mM, MnCl2:10 mM) were added to 92 wells of a 96-well round bottom polypropylene plate. The amount of enzyme was determined empirically based on the linear range of the assay and the acceptable signal to noise ratio. The remaining wells were used for control “CTRL”) and background (“BKG”). The CTRL was prepared with the enzyme, substrate buffer and 2% DMSO, and the BKG was prepared with substrate buffer and 2% DMSO.
A solution (12 μL) of the test compound in DMSO was added to the testing wells. […] The ATP/^33P-ATP solution (10 μL containing 50 μM unlabeled ATP and 1 μCi ^33P-ATP) was added to all wells and the completed plates were mixed and incubated at 30° C. for 30 min. Ice-cold 50% TCA/10 mM sodium phosphate (60 μL) was added to each well and the plates were kept on ice for 15 min. The contents of each well were transferred to the wells of a 96-well filterplate (Millipore, MultiScreen-DP) and the filterplate was placed on a vacuum manifold fitted with a waste collection tray. The wells were washed five times with 10% TCA/10 mM sodium phosphate (200 μL) under vacuum. MicroScint-20 scintillant was added, and the plates were sealed using Topseal-S sheets and counted in a Packard TopCount scintillation counter using a ^33P liquid program with color quench correction, where the output is in color quench-corrected cpm. The % inhibition of each test compound as shown in Table 2 was calculated by the following formula: % inhibition=[1−(sample−BKG)/(CTRL−BKG)]×100.
[…] In addition, the IC50 was calculated for some compounds using the Deltagraph 4-parameter curve-fitting program.

TNF-α production = experiment: In-Vitro Whole Cell Assay for TNF-α Inhibition (LPS-stimulated PBMC, ELISA); assay type: cell-based; details: LPS overnight, TNF-α by ELISA
Method: B. In-Vitro Whole Cell Assay for TNF-α Inhibition
Freshly obtained venous blood was anticoagulated with heparin, diluted with an equal volume of phosphate buffered saline (“PBS”) and placed in a sterile tube or other container. Aliquots (30 mL) of this mixture were transferred to centrifuge tubes which were underlaid with Ficoll-Hypaque (15 mL). The prepared tubes were centrifuged at 400×g, without braking, for 30 min at room temperature. Approximately ½ to ⅔ of the platelet layer above the mononuclear cell band was removed with a pipette. The majority of the mononuclear cell layer was carefully removed using a pipette and these PBMC's were diluted with PBS and spun at 600×g for 15 min. The resulting PBMC's were washed with another portion of PBS and spun at 400×g for 10 min at room temperature. The recovered pellets were diluted in low endotoxin RPMI/1% FCS culture medium, and gave a cell concentration of 0.5-2.0×10^6 PMBC/mL. A small volume of the suspension was removed for counting on a hemocytometer and the remaining preparation was centrifuged at 200×g for 15 min at room temperature. The recovered pelleted PMBC's were resuspended in RPMI/1% FCS to a concentration of 1.67×10^6/mL.
To run the assay, the PBMC suspension (180 μL) was transferred to duplicate wells of a 96-well flat-bottom microtiter plate and incubated for 1 h at 37° C. A solution of test compound (10 μL: prepared at 20× the desired final concentration) was added to each well and the plate was incubated for 1 h at 37° C. A solution (10 μL) of LPS in RPMI/1% FCS (200 ng/mL) was added and the wells were incubated overnight at 37° C. The supernate (100 μL) was removed from each well and diluted with RPMI/1% FCS (400 μL). The samples were analyzed for TNF-α using a commercial ELISA kit (Genzyme).
The compounds were tested for their ability to inhibit TNF-α production. The IC50 nM results are listed for the indicated compounds.

[2] = system: LPS-induced TNF-α production; experiment: In Vivo Rodent Assay for Inhibition of TNF-α Production (mice); design: species or system Mice (BALB/cJ females); details: oral dosing, LPS 1 mg/kg i.p., serum TNF-α
Method: C. In Vivo Rodent Assay for Inhibition of TNF-α Production
Mice (BALB/cJ females, Jackson Laboratories) or rats (Lewis males, Charles River) were fasted for 30 min prior to oral dosing with 5-10 mL/kg of test compound at 5-50 mg/kg. Thirty minutes after dosing, the animals were injected intraperitoneally with LPS at 1 mg/kg and returned to their cages for 1 h. Animals were anesthetized by CO2, exsanguinated by cardiac puncture and whole blood collected (0.1-0.7 mL). The blood was allowed to clot and serum was transferred to a centrifuge tube. This sample was centrifuged, and serum was collected, aliquoted and frozen at −80° C. Samples were tested by commercial ELISA's for TNF-α (Endogen for mouse TNF-α and Biosource for rat TNF-α).

T1 sequence (Q16539 whole entry): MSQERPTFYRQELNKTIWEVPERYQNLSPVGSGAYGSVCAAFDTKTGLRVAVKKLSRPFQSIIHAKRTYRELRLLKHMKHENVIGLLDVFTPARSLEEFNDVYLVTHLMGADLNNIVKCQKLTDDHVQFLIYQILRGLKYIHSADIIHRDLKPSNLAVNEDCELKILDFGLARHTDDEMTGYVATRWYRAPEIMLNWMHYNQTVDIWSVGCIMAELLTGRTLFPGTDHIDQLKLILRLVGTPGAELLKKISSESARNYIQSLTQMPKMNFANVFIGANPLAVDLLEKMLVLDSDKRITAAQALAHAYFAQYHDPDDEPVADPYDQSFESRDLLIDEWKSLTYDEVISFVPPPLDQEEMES

inhibition at 10 µM [1]	IC50 (TNF-α production)	SMILES	inhibition in vivo at 10 mg/kg ([2]; Mus musculus, 1 h)	inhibition in vivo at 25 mg/kg ([2]; Mus musculus, 1 h, 25 mg/kg)	% p38 inhib @ 10 μM [1]	TNF-α % Inhibition Mouse ([2]; 25 mg/kg)
49%	3.5 nM	Fc1ccc(-c2c[nH]c(CCCc3ccccc3)c2-c2ccncc2)cc1 [compound 28, 4-(4-Fluorophenyl)-2-(3-phenylpropyl)-3-(4-pyridyl)pyrrole]	10%	10%	–	–
67%	15 nM	O=[N+]([O-])c1ccc(-n2cc(-c3ccc(F)cc3)c(-c3ccncc3)c2CCCc2ccccc2)cc1 [compound 31, 4-(4-Fluorophenyl)-1-(4-nitrophenyl)-2-(3-phenylpropyl)-3-(4-pyridyl)pyrrole]	47%	–	–	–
38%	5 nM	CC(=O)Nc1ccc(-n2cc(-c3ccc(F)cc3)c(-c3ccncc3)c2CCCc2ccccc2)cc1 [compound 32, 1-(4-Acetoaminophenyl)-4-(4-fluorophenyl)-2-(3-phenylpropyl)-3-(4-pyridyl)pyrrole]	48%	–	–	–

SMILES	inhibition at 10 µM [1]	IC50 (TNF-α production)	inhibition in vivo at 10 mg/kg ([2]; Mus musculus, 1 h)	inhibition in vivo at 25 mg/kg ([2]; Mus musculus, 1 h, 25 mg/kg)	% p38 inhib @ 10 μM [1]	TNF-α % Inhibition Mouse ([2]; 25 mg/kg)
O=[N+]([O-])c1ccc(-n2cc(-c3ccncc3)c(-c3ccc(F)cc3)c2)cc1 [compound 30]	–	2 nM	–	–	70%	53%
